System: panel of 484 cancer cell lines
Experiment: PRISM cancer cell line profiling, 5 days
Format: cell-based
Design: AUC: unit not given beside the values
Description: Cancer cell line profiling was performed using the Broad’s PRISM platform. Cell treatment and data analysis were performed as described in Yu et al[42]. Raw Luminex signal was converted to AUC values for each cell line as described. The resulting AUC profile for each compound was modeled against DepMap using the limma package in R[71]. Because hotspot mutation analysis was performed against DepMap, TP53 annotations in Fig. 6c,d are directly from DepMap.

COc1ccc(C2=N[C@@H](c3ccc(Cl)cc3)[C@@H](c3ccc(Cl)cc3)N2C(=O)N2CCNC(=O)C2)c(OC(C)C)c1 [Nutlin-3A]
AUC (NCIH2170_LUNG): 1.154 | AUC (NCIH2172_LUNG): 1.147 | AUC (NCIH2228_LUNG): 1.087 | AUC (NCIH2347_LUNG): 0.9531 | AUC (NCIH2444_LUNG): 1.324 | AUC (NCIH2452_PLEURA): 1.028 | AUC (NCIN87_STOMACH): 1.465 | AUC (NUGC3_STOMACH): 1.1161 | AUC (NUGC4_STOMACH): 0.888 | AUC (OAW42_OVARY): 1.011 | AUC (OC314_OVARY): 0.964 | AUC (OC316_OVARY): 0.9756 | AUC (OE19_OESOPHAGUS): 1.199 | AUC (OE21_OESOPHAGUS): 1.087 | AUC (OE33_OESOPHAGUS): 0.9763 | AUC (ONCODG1_OVARY): 1.1325 | AUC (ONS76_CENTRAL_NERVOUS_SYSTEM): 0.8865 | AUC (OSRC2_KIDNEY): 0.8477 | AUC (OUMS23_LARGE_INTESTINE): 1.065 | AUC (OV56_OVARY): 1.192 | AUC (OVCAR8_OVARY): 1.207 | AUC (OVISE_OVARY): 0.8578 | AUC (OVK18_OVARY): 0.8595 | AUC (OVSAHO_OVARY): 1.156 | AUC (OVTOKO_OVARY): 0.9039 | AUC (PANC1_PANCREAS): 1.1 | AUC (PANC0203_PANCREAS): 1.166 | AUC (PANC0327_PANCREAS): 1.409 | AUC (PANC0403_PANCREAS): 1.138 | AUC (PANC0813_PANCREAS): 1.0676 | AUC (PANC1005_PANCREAS): 1.216 | AUC (PATU8902_PANCREAS): 1.154 | AUC (PATU8988S_PANCREAS): 1.234 | AUC (PATU8988T_PANCREAS): 1.162 | AUC (PC3_PROSTATE): 0.976 | AUC (PC14_LUNG): 1.1376 | AUC (PECAPJ15_UPPER_AERODIGESTIVE_TRACT): 1.095 | AUC (PECAPJ41CLONED2_UPPER_AERODIGESTIVE_TRACT): 1.019 | AUC (PECAPJ49_UPPER_AERODIGESTIVE_TRACT): 1.2004 | AUC (PK1_PANCREAS): 1.122 | AUC (PK45H_PANCREAS): 1.1189 | AUC (PK59_PANCREAS): 1.0633 | AUC (PLCPRF5_LIVER): 1.234 | AUC (PSN1_PANCREAS): 1.126 | AUC (QGP1_PANCREAS): 1.087 | AUC (RCC10RGB_KIDNEY): 0.8832 | AUC (RCM1_LARGE_INTESTINE): 1.202 | AUC (RD_SOFT_TISSUE): 1.042 | AUC (RERFLCAD1_LUNG): 1.147 | AUC (RERFLCAD2_LUNG): 1.183 | AUC (RERFLCAI_LUNG): 1.0697 | AUC (RERFLCKJ_LUNG): 1.11 | AUC (RERFLCMS_LUNG): 1.091 | AUC (RH30_SOFT_TISSUE): 1.041 | AUC (RKN_SOFT_TISSUE): 1.06 | AUC (RKO_LARGE_INTESTINE): 0.9236 | AUC (RL952_ENDOMETRIUM): 0.9689 | AUC (RMGI_OVARY): 0.9145 | AUC (RMUGS_OVARY): 1.151 | AUC (RT4_URINARY_TRACT): 1.199 | AUC (RT112_URINARY_TRACT): 0.9358 | AUC (RVH421_SKIN): 1.087 | AUC (S117_SOFT_TISSUE): 1.193 | AUC (SBC5_LUNG): 1.066 | AUC (SCABER_URINARY_TRACT): 1.156 | AUC (SCC25_UPPER_AERODIGESTIVE_TRACT): 1.213 | AUC (SF126_CENTRAL_NERVOUS_SYSTEM): 0.9298 | AUC (SF295_CENTRAL_NERVOUS_SYSTEM): 1.194 | AUC (SF539_CENTRAL_NERVOUS_SYSTEM): 1.114 | AUC (SH4_SKIN): 0.9981 | AUC (SH10TC_STOMACH): 1.171 | AUC (SIMA_AUTONOMIC_GANGLIA): 1.067 | AUC (SJSA1_BONE): 0.8737 | AUC (SKES1_BONE): 1.109 | AUC (SKHEP1_LIVER): 0.8252 | AUC (SKLU1_LUNG): 1.249 | AUC (SKMEL2_SKIN): 1.0683 | AUC (SKMEL3_SKIN): 1.137 | AUC (SKMEL5_SKIN): 0.8995 | AUC (SKMEL24_SKIN): 0.8575 | AUC (SKMEL30_SKIN): 1.211 | AUC (SKMES1_LUNG): 0.9911 | AUC (SKNAS_AUTONOMIC_GANGLIA): 1.242 | AUC (SKNBE2_AUTONOMIC_GANGLIA): 1.137 | AUC (SKOV3_OVARY): 1.101 | AUC (SKUT1_SOFT_TISSUE): 1.057 | AUC (SNB75_CENTRAL_NERVOUS_SYSTEM): 1.2 | AUC (SNGM_ENDOMETRIUM): 1.197 | AUC (SNU46_UPPER_AERODIGESTIVE_TRACT): 1.125 | AUC (SNU61_LARGE_INTESTINE): 1.275 | AUC (SNU81_LARGE_INTESTINE): 1.088 | AUC (SNU213_PANCREAS): 1.089 | AUC (SNU245_BILIARY_TRACT): 1.207 | AUC (SNU308_BILIARY_TRACT): 1.147 | AUC (SNU398_LIVER): 1.135 | AUC (SNU407_LARGE_INTESTINE): 0.9535 | AUC (SNU410_PANCREAS): 1.257 | AUC (SNU423_LIVER): 0.9946 | AUC (SNU449_LIVER): 1.202 | AUC (SNU466_CENTRAL_NERVOUS_SYSTEM): 1.108 | AUC (SNU601_STOMACH): 1.158 | AUC (SNU668_STOMACH): 0.9614 | AUC (SNU685_ENDOMETRIUM): 1.162 | AUC (SNU719_STOMACH): 1.114 | AUC (SNU738_CENTRAL_NERVOUS_SYSTEM): 1.181 | AUC (SNU761_LIVER): 1.163 | AUC (SNU840_OVARY): 0.883 | AUC (SNU869_BILIARY_TRACT): 1.149 | AUC (SNU886_LIVER): 1.1718 | AUC (SNU1041_UPPER_AERODIGESTIVE_TRACT): 1.098 | AUC (SNU1066_UPPER_AERODIGESTIVE_TRACT): 1.273 | AUC (SNU1076_UPPER_AERODIGESTIVE_TRACT): 1.222 | AUC (SNU1077_ENDOMETRIUM): 1.256 | AUC (SNU1079_BILIARY_TRACT): 1.079 | AUC (SNU1105_CENTRAL_NERVOUS_SYSTEM): 1.1033 | AUC (SNU1196_BILIARY_TRACT): 1.008 | AUC (SNU1214_UPPER_AERODIGESTIVE_TRACT): 1.185 | AUC (SNUC2A_LARGE_INTESTINE): 1.021 | AUC (SNUC4_LARGE_INTESTINE): 0.9159 | AUC (SNUC5_LARGE_INTESTINE): 1.066 | AUC (SQ1_LUNG): 1.1 | AUC (SUIT2_PANCREAS): 1.124 | AUC (SW48_LARGE_INTESTINE): 0.6832 | AUC (SW480_LARGE_INTESTINE): 1.185 | AUC (SW579_THYROID): 1.033 | AUC (SW620_LARGE_INTESTINE): 1.193 | AUC (SW780_URINARY_TRACT): 0.8319 | AUC (SW837_LARGE_INTESTINE): 1.121 | AUC (SW900_LUNG): 1.197 | AUC (SW948_LARGE_INTESTINE): 1.0613 | AUC (SW1088_CENTRAL_NERVOUS_SYSTEM): 1.216 | AUC (SW1271_LUNG): 0.9516 | AUC (SW1353_BONE): 1.036 | AUC (SW1573_LUNG): 0.9119 | AUC (SW1710_URINARY_TRACT): 1.113 | AUC (SW1990_PANCREAS): 1.0624 | AUC (T3M10_LUNG): 1.167 | AUC (T24_URINARY_TRACT): 1.096 | AUC (T47D_BREAST): 1.041 | AUC (T98G_CENTRAL_NERVOUS_SYSTEM): 0.9597 | AUC (TCCPAN2_PANCREAS): 1.066 | AUC (TCCSUP_URINARY_TRACT): 1.257 | AUC (TE1_OESOPHAGUS): 1.118 | AUC (TE4_OESOPHAGUS): 1.169 | AUC (TE5_OESOPHAGUS): 1.116 | AUC (TE6_OESOPHAGUS): 1.1488 | AUC (TE8_OESOPHAGUS): 1.279 | AUC (TE9_OESOPHAGUS): 0.9402 | AUC (TE10_OESOPHAGUS): 1.052 | AUC (TE11_OESOPHAGUS): 1.135 | AUC (TEN_ENDOMETRIUM): 1.229 | AUC (TM31_CENTRAL_NERVOUS_SYSTEM): 1.145 | AUC (TM87_SOFT_TISSUE): 0.8528 | AUC (TOV21G_OVARY): 0.8573 | AUC (TOV112D_OVARY): 1.15 | mean diff. between TP53 functional WT and functional mutant populations (AUC) (TP53 annotation by functional scores of Giacomelli et al.): 0.165 ± 0.011 | AUC (TT2609C02_THYROID): 1.113 | AUC (TT_OESOPHAGUS): 1.115 | AUC (TT_THYROID): 0.8544 | AUC (TUHR4TKB_KIDNEY): 0.8234 | AUC (U2OS_BONE): 0.8753 | AUC (U118MG_CENTRAL_NERVOUS_SYSTEM): 1.124 | AUC (U251MG_CENTRAL_NERVOUS_SYSTEM): 1.1855 | AUC (UACC62_SKIN): 0.841 | AUC (UACC257_SKIN): 0.9099 | AUC (UBLC1_URINARY_TRACT): 1.2 | AUC (UMUC1_URINARY_TRACT): 1.103 | AUC (UO31_KIDNEY): 0.9228 | AUC (VMCUB1_URINARY_TRACT): 1.108 | AUC (VMRCRCW_KIDNEY): 1.098 | AUC (VMRCRCZ_KIDNEY): 1.139 | AUC (WM88_SKIN): 0.8161 | AUC (WM793_SKIN): 0.8713 | AUC (WM983B_SKIN): 0.9957 | AUC (WM1799_SKIN): 0.8817 | AUC (WM2664_SKIN): 0.8653 | AUC (YAPC_PANCREAS): 1.201 | AUC (YD8_UPPER_AERODIGESTIVE_TRACT): 1.226 | AUC (YD10B_UPPER_AERODIGESTIVE_TRACT): 1.17 | AUC (YD15_SALIVARY_GLAND): 1.2 | AUC (YD38_UPPER_AERODIGESTIVE_TRACT): 1.227 | AUC (YH13_CENTRAL_NERVOUS_SYSTEM): 1.109 | AUC (YKG1_CENTRAL_NERVOUS_SYSTEM): 1.146 | AUC (ZR751_BREAST): 1.121

From publication PMC7093416, “Selective USP7 inhibition elicits cancer cell killing through a p53-dependent mechanism” (Scientific Reports, 2020)
